{"source": "patent US6166072A", "about": "“Amino acid derivatives” (Allelix Neuroscience, Inc., priority 1999, dated 2000)", "key": {"[1]": {"target": "T1, GlyT-1C (Homo sapiens, UniProt P48067)", "T1 construct": "[3H]glycine uptake", "T1 sequence (P48067 1-706)": "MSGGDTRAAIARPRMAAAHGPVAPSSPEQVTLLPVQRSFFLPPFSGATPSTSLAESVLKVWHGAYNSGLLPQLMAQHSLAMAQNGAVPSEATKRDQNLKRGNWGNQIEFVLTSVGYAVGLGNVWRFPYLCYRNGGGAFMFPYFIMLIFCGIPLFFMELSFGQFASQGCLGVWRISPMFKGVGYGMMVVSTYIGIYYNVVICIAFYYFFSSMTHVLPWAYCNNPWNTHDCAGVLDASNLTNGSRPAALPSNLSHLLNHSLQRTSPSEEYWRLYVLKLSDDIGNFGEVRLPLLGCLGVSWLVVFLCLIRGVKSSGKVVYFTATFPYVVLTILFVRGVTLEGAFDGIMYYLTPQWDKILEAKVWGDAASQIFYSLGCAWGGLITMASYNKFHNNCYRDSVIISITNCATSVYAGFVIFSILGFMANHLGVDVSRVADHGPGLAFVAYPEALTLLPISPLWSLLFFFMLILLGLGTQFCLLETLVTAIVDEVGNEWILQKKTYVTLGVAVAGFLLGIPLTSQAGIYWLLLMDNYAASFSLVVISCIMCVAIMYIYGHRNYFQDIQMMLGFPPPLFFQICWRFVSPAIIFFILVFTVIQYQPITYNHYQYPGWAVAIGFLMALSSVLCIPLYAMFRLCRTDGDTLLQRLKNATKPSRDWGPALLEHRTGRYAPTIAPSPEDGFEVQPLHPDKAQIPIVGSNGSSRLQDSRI", "experiment": "Glycine uptake by cells transiently transfected with GlyT-1C", "assay_type": "cell-based", "conditions": "GlyT-1 and GlyT-2 transfected cells", "experimental": "(§1) This example illustrates a method for the measurement of glycine uptake by transfected cultured cells.\n(§2) Cells transiently transfected with GlyT-1C (see Kim, et al., Molecular Pharmacology, 45, 1994:608-617) and human GlyT-2 (the homolog of the rat GlyT-2 described by Liu et al., J. Biological Chemistry, 268, 1993.22802-22808) were washed three times with HEPES buffered saline (HBS). The cells were then incubated 10 minutes at 37° C., after which a solution containing 50 nM [^3 H]glycine (17.5 Ci/mmol) and either (a) no potential competitor, (b) […] nonradioactive glycine or (c) a concentration of a candidate drug. A range of concentrations of the candidate drug was used to generate data for calculating the concentration resulting in 50% of the effect (e.g., the IC50 's which are the concentration of drug inhibiting glycine uptake by 50%). The cells were then incubated another 10 minutes at 37° C., after which the cells were aspirated and washed three times with ice-cold HBS. The cells were harvested, scintillant was added to the cells, the cells were shaken for 30 minutes, and the radioactivity in the cells was counted using a scintillation counter. Data were compared between the same cells contacted and not contacted by the candidate agent, and between cells having GlyT-1 activity versus cells having GlyT-2 activity, depending on the assay being conducted."}, "[2]": {"target": "T2, human GlyT-2 (Homo sapiens, UniProt Q9Y345)", "T2 construct": "[3H]glycine uptake", "T2 sequence (Q9Y345 1-797)": "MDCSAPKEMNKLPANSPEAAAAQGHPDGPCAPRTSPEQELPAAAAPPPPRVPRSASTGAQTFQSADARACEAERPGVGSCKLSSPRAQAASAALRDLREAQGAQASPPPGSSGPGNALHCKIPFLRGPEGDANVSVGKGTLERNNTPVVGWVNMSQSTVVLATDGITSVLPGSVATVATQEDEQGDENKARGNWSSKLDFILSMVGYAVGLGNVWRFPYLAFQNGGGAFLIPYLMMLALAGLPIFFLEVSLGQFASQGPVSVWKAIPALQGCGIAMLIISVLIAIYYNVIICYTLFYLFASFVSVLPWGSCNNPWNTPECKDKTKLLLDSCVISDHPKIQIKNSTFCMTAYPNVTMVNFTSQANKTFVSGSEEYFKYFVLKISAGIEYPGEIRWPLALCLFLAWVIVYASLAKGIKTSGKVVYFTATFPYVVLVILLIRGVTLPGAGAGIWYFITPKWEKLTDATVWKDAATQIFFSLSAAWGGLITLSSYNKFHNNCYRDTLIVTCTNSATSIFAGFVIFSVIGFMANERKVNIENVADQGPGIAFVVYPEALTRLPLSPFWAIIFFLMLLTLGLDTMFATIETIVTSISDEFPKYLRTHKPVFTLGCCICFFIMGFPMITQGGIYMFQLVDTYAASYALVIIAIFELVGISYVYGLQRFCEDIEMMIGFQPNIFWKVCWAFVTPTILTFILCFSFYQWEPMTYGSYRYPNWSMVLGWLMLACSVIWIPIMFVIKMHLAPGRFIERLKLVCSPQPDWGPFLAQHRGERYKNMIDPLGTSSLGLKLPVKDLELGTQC", "experiment": "Glycine uptake by cells transiently transfected with human GlyT-2", "assay_type": "cell-based", "conditions": "GlyT-2 versus GlyT-1 transfected cells", "experimental": "as §1, §2"}}}
{"smiles": "CCCc1ccc(C(SCC(N)C(=O)O)c2ccc(F)cc2F)cc1", "note": "(racemic) [S-(2,4-Difluoro-4'-^npropyldiphenyl)methyl-D,L-cysteine]", "values": [{"measurement": "mixed GlyT-1/GlyT-2 activity", "setting": "[1]", "value": "mixed GlyT-1/GlyT-2 activity"}]}
{"smiles": "CCc1ccc(C(SCC(N)C(=O)O)c2ccc(F)cc2F)cc1CC", "note": "(racemic) [S-(3,4-Diethyl-2',4'-difluorodiphenyl)methyl-D,L-cysteine]", "values": [{"measurement": "selectivity for inhibition of glycine transport via GlyT-2 versus GlyT-1", "setting": "[2]", "value": "selectivity for the inhibition of glycine transport via GlyT-2 versus GlyT-1"}]}
{"smiles": "CCc1ccc(C(SC(C)(C)C(N)C(=O)O)c2ccccc2F)cc1CC", "note": "(racemic) [S-(3,4-Diethyl-2'-fluorodiphenyl)methyl-D,L-dimethylcysteine]", "values": [{"measurement": "selectivity for inhibition of glycine transport via GlyT-2 versus GlyT-1", "setting": "[2]", "value": "selectivity for the inhibition of glycine transport via GlyT-2 versus GlyT-1"}]}
{"smiles": "CCc1ccc(C(SCC(N)C(=O)O)c2cccc(F)c2)cc1CC", "note": "(racemic) [S-(3,4-Diethyl-3'-fluorodiphenyl)methyl-D,L-cysteine]", "values": [{"measurement": "mixed GlyT-1/GlyT-2 activity", "setting": "[1]", "value": "mixed GlyT-1/GlyT-2 activity"}]}
{"smiles": "CCc1ccc(C(SCC(N)C(=O)O)c2cccc(C(F)(F)F)c2)cc1CC", "note": "(racemic) [S-(3,4-Diethyl-3'-trifluoromethyidiphenyl)methyl-D,L-cysteine]", "values": [{"measurement": "mixed GlyT-1/GlyT-2 activity", "setting": "[1]", "value": "mixed GlyT-1/GlyT-2 activity"}]}
{"smiles": "CCc1ccc(C(SCC(N)C(=O)O)c2ccc([N+](=O)[O-])cc2)cc1CC", "note": "(racemic) [S-(3,4-Diethyl-4'-nitrodiphenyl)methyl-D,L-cysteine]", "values": [{"measurement": "selectivity for inhibition of glycine transport via GlyT-2 versus GlyT-1", "setting": "[2]", "value": "selectivity for the inhibition of glycine transport via GlyT-2 versus GlyT-1"}]}
{"smiles": "CCc1ccc(C(SC(C)(C)C(N)C(=O)O)c2ccc(F)cc2)cc1CC", "note": "(racemic) [S-(3,4-Diethyl-4-fluorodiphenyl)methyl-D,L-dimethylcysteine]", "values": [{"measurement": "mixed GlyT-1/GlyT-2 activity", "setting": "[1]", "value": "mixed GlyT-1/GlyT-2 activity"}]}
{"smiles": "CC(C)(C)c1ccc(C(SCCC(N)C(=O)O)c2ccccc2)cc1", "note": "(racemic) [S-(4'-Butyidiphenyl)methyl-D,L-homocysteine]", "values": [{"measurement": "mixed GlyT-1/GlyT-2 activity", "setting": "[1]", "value": "mixed GlyT-1/GlyT-2 activity"}]}
{"smiles": "Cc1ccc(C(SCC(N)C(=O)O)c2ccc(C)cc2)cc1", "note": "(racemic) [S-(4,4'-Dimethyldiphenyl)methyl-D,L-cysteine]", "values": [{"measurement": "selectivity for inhibition of glycine transport via GlyT-2 versus GlyT-1", "setting": "[2]", "value": "selectivity for the inhibition of glycine transport via GlyT-2 versus GlyT-1"}]}
{"smiles": "NC(CSC(c1ccc(F)cc1)c1ccccc1-c1ccccc1)C(=O)O", "note": "(racemic) [S-(4-Fluoro-2'-phenyldiphenyl)methyl-D,L-cysteine]", "values": [{"measurement": "selectivity for inhibition of glycine transport via GlyT-2 versus GlyT-1", "setting": "[2]", "value": "selectivity for the inhibition of glycine transport via GlyT-2 versus GlyT-1"}]}
{"smiles": "Cc1ccc(C(SCC(N)C(=O)O)c2ccc(C)s2)s1", "note": "(racemic) [S-[α,α-Bis(5-methyl-2-thienyl)]methyl-D,L-cysteine]", "values": [{"measurement": "selectivity for inhibition of glycine transport via GlyT-2 versus GlyT-1", "setting": "[2]", "value": "selectivity for the inhibition of glycine transport via GlyT-2 versus GlyT-1"}]}
{"smiles": "NC(CSC(c1ccc2c(c1)CCCC2)c1ccc(F)cc1F)C(=O)O", "note": "(racemic) [S-[α-(5,6,7,8-Tetrahydronaphth-2-yl)-α-(2,4-difluorophenyl)]methyl-D,L-cysteine]", "values": [{"measurement": "selectivity for inhibition of glycine transport via GlyT-2 versus GlyT-1", "setting": "[2]", "value": "selectivity for the inhibition of glycine transport via GlyT-2 versus GlyT-1"}]}
